Data taken from patent US7803930B2, “Antisense modulation of apolipoprotein B-expression” (Isis Pharmaceuticals, Inc., priority 2002, dated 2010).
In the oligonucleotide strings, read from the 5' end, every base follows the letter of its sugar. An asterisk marks phosphorothioate; unmarked linkages are phosphodiester. Other units and linkages are bracketed, terminal groups are in braces. A string of capitals states the bases alone. e = 2'-O-(2-methoxyethyl) (MOE); [5mC] = 5-methylcytosine; d = 2'-deoxy (DNA)

Test system: human apolipoprotein B mRNA
Assay: Inhibition of human apolipoprotein B mRNA levels in HepG2 cells, quantitative real-time PCR
Type: cell-based
Details: for % INHIB 50 nm / % INHIB 150 nm / % INHIB / % Change in apolipoprotein B mRNA expression: HepG2 cells; for % Change in apolipoprotein B mRNA expression: 24 hour (Table 40); for % INHIB (inhibition of human apolipoprotein B mRNA levels): HepG2 cells treated with 150 nM of compound, quantitative real-time PCR
In short: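 HepG2 cells at 80% confluency were transfected with antisense oligonucleotide using 3.75 μg/mL Lipofectin in Opti-MEM for 4-7 h and harvested 16-24 h after treatment. Apolipoprotein B mRNA was measured by real-time RT-PCR and normalized to GAPDH or RiboGreen total RNA. Percent inhibition came from untreated-control standard curves.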

[1] = Table 11 gene walk, 50 nM, averages from two experiments
[2] = Table 11 gene walk, 150 nM, averages from two experiments
[3] = human apolipoprotein B mRNA, oligonucleotides targeting genomic sequence SEQ ID NO 334, averages from two experiments
[4] = Table 15, 150 nM, averages from two experiments
[5] = Table 1, 150 nM, averages from two experiments

308609 (e[5mC]*eA*eG*e[5mC]*e[5mC]*dA*d[5mC]*dA*dT*dG*d[5mC]*dA*dG*d[5mC]*dT*eT*e[5mC]*eA*eG*eG; antisense) [compound 308609]
% INHIB 50 nm [1]: 78% | % INHIB 150 nm [2]: 96%

301172 (antisense eT*eA*eA*eT*eG*dT*dG*dT*dT*dG*d[5mC]*dT*dG*dG*dT*eG*eA*eA*eG*eA) [compound 301172]
% INHIB [3]: 35%

301224 (antisense eA*eA*eA*eT*e[5mC]*dA*d[5mC]*dA*d[5mC]*dT*dA*dT*dG*dT*dG*eT*eT*e[5mC]*eT*eA) [compound 301224]
% INHIB [4]: 33%

301051 (eG*eA*eT*eG*e[5mC]*d[5mC]*dT*dT*dA*d[5mC]*dT*dT*dG*dG*dA*e[5mC]*eA*eG*eA*e[5mC]; antisense) [compound 301051]
% INHIB [3]: 27%

332775 (antisense GCCTCATTATTATTATCACC; sugars from the 5' end e5 d10 e5, all phosphorothioate, methylation of C not given here) [compound 332775]
% Change in apolipoprotein B mRNA expression (50 nM): −1% | % Change in apolipoprotein B mRNA expression (150 nM): +10%

301220 (antisense eA*eG*eA*eG*eG*dT*dT*dT*dT*dG*d[5mC]*dT*dG*dT*dG*e[5mC]*e[5mC]*eA*eG*eA) [compound 301220]
% INHIB [4]: 51%

281612 (antisense e[5mC]*eA*eA*eG*eG*dT*d[5mC]*dA*dT*dA*d[5mC]*dT*d[5mC]*dT*dG*e[5mC]*e[5mC]*eG*eA*eT) [compound 281612]
% INHIB (inhibition of human apolipoprotein B mRNA levels) (averages from two experiments): 83%

281619 (antisense e[5mC]*eT*e[5mC]*eT*e[5mC]*d[5mC]*dA*dT*dT*dG*dA*dG*d[5mC]*d[5mC]*dG*eG*e[5mC]*e[5mC]*eA*eG) [compound 281619]
% INHIB (inhibition of human apolipoprotein B mRNA levels) (averages from two experiments): 96%

270990 (antisense e[5mC]*e[5mC]*e[5mC]*eT*e[5mC]*dT*dT*dG*dA*dT*dG*dT*dT*d[5mC]*dA*eG*eG*eA*eT*eG) [compound 270990]
% INHIB (inhibition of human apolipoprotein B mRNA levels) (averages from two experiments): 42%

301084 (antisense eA*e[5mC]*eA*e[5mC]*eG*dG*dT*dA*dT*d[5mC]*d[5mC]*dT*dA*dT*dG*eG*eA*eG*eG*eA) [compound 301084]
% INHIB [3]: 49%

301044 (eA*eA*eA*eA*eT*dA*dA*d[5mC]*dT*d[5mC]*dA*dG*dA*dT*d[5mC]*e[5mC]*eT*eG*eA*eT; antisense) [compound 301044]
% INHIB (inhibition of human apolipoprotein B mRNA levels) (averages from two experiments): 76%

271044 (e[5mC]*e[5mC]*e[5mC]*eA*eG*dT*dG*dG*dT*dG*d[5mC]*d[5mC]*dA*d[5mC]*dT*eG*eG*e[5mC]*eT*eG; antisense) [compound 271044]
% INHIB (inhibition of human apolipoprotein B mRNA levels) (averages from two experiments): 22%

308600 (antisense eG*eT*eA*eG*e[5mC]*d[5mC]*dT*d[5mC]*dA*dG*dT*d[5mC]*dT*dG*d[5mC]*eT*eT*e[5mC]*eG*e[5mC]) [compound 308600]
% INHIB 50 nm [1]: 72% | % INHIB 150 nm [2]: 89%

301114 (antisense eT*eG*e[5mC]*eA*e[5mC]*dA*dG*dA*dG*dG*dT*dG*d[5mC]*dA*dA*eG*eA*eT*eG*eT) [compound 301114]
% INHIB [3]: 16%

147784 (antisense e[5mC]*eA*eG*e[5mC]*eG*d[5mC]*d[5mC]*dA*dG*d[5mC]*dA*dG*d[5mC]*dG*d[5mC]*e[5mC]*eA*eG*e[5mC]*eA) [compound 147784]
% INHIB [5]: 70%

301071 (e[5mC]*eA*e[5mC]*eT*eT*dG*dT*dT*dG*dG*dA*d[5mC]*dA*dG*dT*e[5mC]*eA*eT*eT*e[5mC]; antisense) [compound 301071]
% INHIB [3]: 48%

281615 (antisense eT*eA*eG*eA*eT*d[5mC]*dT*d[5mC]*dT*dG*dG*dA*dG*dG*dA*eT*eT*eT*eG*e[5mC]) [compound 281615]
% INHIB (inhibition of human apolipoprotein B mRNA levels) (averages from two experiments): 81%

308643 (antisense AGGTTACCAGCCACATGCAG; 3-10-7 2'-MOE gapmer, phosphorothioate, chemistry not fully specified) [compound 308643]
% INHIB 50 nm (50 nm oligonucleotide, variable deoxy gap position): 56% | % INHIB 150 nm (150 nm oligonucleotide, variable deoxy gap position): 96%

301068 (eA*eT*eT*eT*e[5mC]*d[5mC]*d[5mC]*dA*d[5mC]*dT*dG*dG*dG*dT*dA*e[5mC]*eT*e[5mC]*eT*e[5mC]; antisense) [compound 301068]
% INHIB [3]: 44%

301060 (e[5mC]*e[5mC]*eA*eG*e[5mC]*dT*d[5mC]*dA*dA*d[5mC]*d[5mC]*dT*dG*dA*dG*eA*eA*eT*eT*e[5mC]; antisense) [compound 301060]
% INHIB [3]: 17%

301200 (antisense eT*eT*eG*eA*eA*dT*dG*dA*d[5mC]*dA*d[5mC]*dT*dA*dG*dA*eT*eT*eT*eT*e[5mC]) [compound 301200]
% INHIB [3]: 37%

301208 (antisense eT*eG*eG*eT*eA*dT*dT*dT*dA*d[5mC]*d[5mC]*dT*dG*dA*dG*eG*eG*e[5mC]*eT*eG) [compound 301208]
% INHIB [3]: 21%

301054 (eT*e[5mC]*e[5mC]*eT*e[5mC]*d[5mC]*dA*dT*dA*d[5mC]*d[5mC]*dT*dT*dG*d[5mC]*eA*eG*eT*eT*eG; antisense) [compound 301054]
% INHIB [3]: 0%

301116 (antisense eG*eA*eT*eG*eG*dA*dT*dG*dG*dT*dG*dA*dG*dA*dA*eA*eT*eT*eA*e[5mC]) [compound 301116]
% INHIB [3]: 33%

301023 (eT*eA*eG*eA*eG*dG*dA*dT*dG*dA*dT*dA*dG*dT*dA*eA*eG*eT*eT*e[5mC]; antisense) [compound 301023]
% INHIB (inhibition of human apolipoprotein B mRNA levels) (averages from two experiments): 69%

301204 (antisense eA*eG*e[5mC]*eT*e[5mC]*d[5mC]*dA*dT*dA*d[5mC]*dT*dG*dA*dA*dG*eT*e[5mC]*e[5mC]*eT*eT) [compound 301204]
% INHIB [3]: 37%

271017 (antisense eG*eG*eT*eG*e[5mC]*d[5mC]*dT*dG*dT*d[5mC]*dT*dG*d[5mC]*dT*d[5mC]*eA*eG*e[5mC]*eT*eG) [compound 271017]
% INHIB (inhibition of human apolipoprotein B mRNA levels) (averages from two experiments): 30%

271003 (antisense eG*eA*e[5mC]*eA*e[5mC]*d[5mC]*dA*dT*d[5mC]*dA*dG*dG*dA*dA*d[5mC]*eT*eT*eG*eA*e[5mC]) [compound 271003]
% INHIB (inhibition of human apolipoprotein B mRNA levels) (averages from two experiments): 46%

301126 (eG*eG*e[5mC]*eT*eA*dA*dT*dA*dA*dA*dT*dA*dG*dG*dG*eT*eA*eG*eT*eT; antisense) [compound 301126]
% INHIB [3]: 22%

301102 (antisense eT*e[5mC]*e[5mC]*eA*eG*dA*d[5mC]*dT*dT*dG*dT*d[5mC]*dT*dG*dA*eG*eT*e[5mC]*eT*eA) [compound 301102]
% INHIB [3]: 47%

301123 (eG*eA*eT*eG*eT*dA*dT*dG*dT*d[5mC]*dA*dT*dA*dT*dA*eA*eA*eA*eG*eA; antisense) [compound 301123]
% INHIB [3]: 26%

301166 (antisense eA*eT*eT*e[5mC]*eT*dG*d[5mC]*d[5mC]*dT*d[5mC]*dT*dT*dA*dG*dA*eA*eA*eG*eT*eT) [compound 301166]
% INHIB [3]: 38%

271050 (e[5mC]*e[5mC]*eT*eG*eG*dA*dG*d[5mC]*dA*dA*dG*d[5mC]*dT*dT*d[5mC]*eA*eT*eG*eT*eA; antisense) [compound 271050]
% INHIB (inhibition of human apolipoprotein B mRNA levels) (averages from two experiments): 42%

147823 (antisense eT*eG*e[5mC]*e[5mC]*e[5mC]*dT*dG*d[5mC]*dA*dG*d[5mC]*dT*dT*d[5mC]*dA*e[5mC]*eT*eG*eA*eA) [compound 147823]
% INHIB [5]: 19%
